Reference: patent publication US11319326B2, “Tricyclic fused derivatives of 1-(cyclo)alkyl pyrtdin-2-one useful for the treatment of cancer” (JUBILANT BIOSYS LIMITED, priority 2015, dated 2022)

Tested on: MV4-11 cells
Assay: Anticancer activity: Alamar Blue 3-day proliferation assay
Type: cell-based
Settings: AML cell line MV4-11, 72 h, read-out: MV4-11 EC50_μM
Procedure: Anticancer Activity: Alamar Blue Assay
The impact of the compounds on cancer cell proliferation was determined using the AML cell line MV4-11 (ATCC) in a 3-day proliferation assay. MV4-11 cells were maintained in RPMI supplemented with 10% FBS at 37° C., 5% CO2. For compound testing, MV4-11 cells were plated in a 96-well black bottom plate at a density of 15,000 cells/well in 100 μL culture media and incubated at 37° C. overnight. Compound dilution series were prepared in DMSO via a 3-fold serial dilution from 100 μM to 0.005 μM. The DMSO dilution series were then diluted with media, with the final compound concentrations added to the wells ranging from 10 μM to 0.0005 μM. […] The fluorescent readings from the Alamar Blue assay were normalized to the DMSO treated cells and analyzed using the GraphPad Prism software with sigmoidal curve fitting to obtain EC50.

**Q.** Which EC50 does the source give for `CCNC(=O)CC1N=C(c2c(F)cccc2F)c2cc(OC)ccc2-c2cn(C)c(=O)cc21` (racemic) [Compound 38, ±2-(7-(2,6-difluorophenyl)-9-methoxy-2-methyl-3-oxo-3,5-dihydro-2H-benzo[c]pyrido[3,4-e]azepin-5-yl)-N-ethylacetamide] here?
**A.** The EC50 was 13 nM.
